biological target: GST-RIPK1 (recombinant GST-RIPK1 kinase domain (residues 1-327)) (Homo sapiens (Human), UniProt Q13546); test: RIPK1-ADP-Glo Enzymatic Assay; type: biochemical; details: 25 nM GST-RIPK1, 300 μM ATP, 3 μM dephosphorylated-MBP, 30 min pre-incubation, 150 min reaction
Method in brief: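 GST-RIPK1 kinase domain (1-327, Sf21-expressed), 25 nM final, pre-incubated 30 min with compound (1% DMSO), then reacted 150 min with 300 μM ATP and 3 μM dephosphorylated MBP in HEPES pH 7.3/MgCl2 buffer. ADP measured by ADP-Glo luminescence; EC50 from 10-point 1:3 titrations (top 100000 nM), four-parameter fit.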

GST-RIPK1 (recombinant GST-RIPK1 kinase domain (residues 1-327)), sequence (Q13546 1-327): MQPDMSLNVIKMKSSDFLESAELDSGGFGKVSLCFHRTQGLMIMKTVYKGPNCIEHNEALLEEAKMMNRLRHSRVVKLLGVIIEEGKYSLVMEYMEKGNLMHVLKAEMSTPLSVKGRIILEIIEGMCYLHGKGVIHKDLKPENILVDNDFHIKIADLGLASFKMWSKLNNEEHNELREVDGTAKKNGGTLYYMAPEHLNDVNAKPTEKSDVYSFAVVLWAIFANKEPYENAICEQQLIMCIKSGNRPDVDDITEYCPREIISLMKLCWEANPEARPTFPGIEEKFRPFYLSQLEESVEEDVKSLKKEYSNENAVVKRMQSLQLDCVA

Question: For `N#CC12CC(n3nc4n(c3=O)[C@H](c3ccc(F)c(F)c3)CC4)(C1)C2` [Compound 1-44, (S)-3-(5-(3,4-difluorophenyl)-3-oxo-6,7-dihydro-3H-pyrrolo[2,1-c][1,2,4]triazol-2(5H)-yl)bicyclo[1.1.1]pentane-1-carbonitrile], which EC50 is on record?
Answer: 67.7 nM

Question: `O=c1n(C23CC(F)(C2)C3)nc2n1[C@H](c1ccc(Cl)cc1)CC2` [Compound 1-45, (S)-5-(4-chlorophenyl)-2-(3-fluorobicyclo[1.1.1]pentan-1-yl)-2,5,6,7-tetrahydro-3H-pyrrolo[2,1-c][1,2,4]triazol-3-one] was tested. Which EC50 did it give?
Answer: 37.7 nM

Question: With `N#CC12CC(n3nc4n(c3=O)[C@H](c3ccc(Cl)cc3)CC4)(C1)C2` [Compound 1-46, (S)-3-(5-(4-chlorophenyl)-3-oxo-6,7-dihydro-3H-pyrrolo[2,1-c][1,2,4]triazol-2(5H)-yl)bicyclo[1.1.1]pentane-1-carbonitrile] as the compound, how does the EC50 read?
Answer: 44 nM

Question: With `N#CC12CC(n3nc4n(c3=O)[C@H](c3ccc(F)cc3F)CC4)(C1)C2` [Compound 1-47, (S)-3-(5-(2,4-difluorophenyl)-3-oxo-6,7-dihydro-3H-pyrrolo[2,1-c][1,2,4]triazol-2(5H)-yl)bicyclo[1.1.1]pentane-1-carbonitrile] as the compound, how does the EC50 read?
Answer: 86.4 nM

Question: Which EC50 does the source give for `O=c1n(C23CC(F)(C2)C3)nc2n1[C@H](c1ccc(F)cc1F)CC2` [Compound 1-48, (S)-5-(2,4-difluorophenyl)-2-(3-fluorobicyclo[1.1.1]pentan-1-yl)-2,5,6,7-tetrahydro-3H-pyrrolo[2,1-c][1,2,4]triazol-3-one] here?
Answer: 54.4 nM

Question: Which EC50 does the source give for `N#CC12CC(n3nc4n(c3=O)[C@H](c3cccc(C(F)(F)F)c3)CC4)(C1)C2` [Compound 1-49, (S)-3-(3-oxo-5-(3-(trifluoromethyl)phenyl)-6,7-dihydro-3H-pyrrolo[2,1-c][1,2,4]triazol-2(5H)-yl)bicyclo[1.1.1]pentane-1-carbonitrile] here?
Answer: 874 nM

Question: For `N#CC12CC(n3nc4n(c3=O)[C@H](c3ccc(C(F)(F)F)cc3)CC4)(C1)C2` [Compound 1-50, (S)-3-(3-oxo-5-(4-(trifluoromethyl)phenyl)-6,7-dihydro-3H-pyrrolo[2,1-c][1,2,4]triazol-2(5H)-yl)bicyclo[1.1.1]pentane-1-carbonitrile], which EC50 is on record?
Answer: 250 nM

Question: For `Cc1c(F)cc([C@@H]2CCc3nn(C45CC(C#N)(C4)C5)c(=O)n32)cc1F` [Compound 1-51, (S)-3-(5-(3,5-difluoro-4-methylphenyl)-3-oxo-6,7-dihydro-3H-pyrrolo[2,1-c][1,2,4]triazol-2(5H)-yl)bicyclo[1.1.1]pentane-1-carbonitrile], which EC50 is on record?
Answer: 16.1 nM

Question: With `N#CC12CC(n3nc4n(c3=O)[C@H](c3cc(F)cc(F)c3)CCC4)(C1)C2` [Compound 1-53, (S)-3-(5-(3,5-difluorophenyl)-3-oxo-5,6,7,8-tetrahydro-[1,2,4]triazolo[4,3-a]pyridin-2(3H)-yl)bicyclo[1.1.1]pentane-1-carbonitrile] as the compound, how does the EC50 read?
Answer: 109 nM

Question: How did the EC50 turn out when `Cc1c(F)cc([C@@H]2CCc3nn(C45CC(F)(C4)C5)c(=O)n32)cc1F` [Compound 1-56, (S)-5-(3,5-difluoro-4-methylphenyl)-2-(3-fluorobicyclo[1.1.1]pentan-1-yl)-2,5,6,7-tetrahydro-3H-pyrrolo[2,1-c][1,2,4]triazol-3-one] was run?
Answer: 15.8 nM

Question: How did the EC50 turn out when `O=c1n(C23CC(C(F)F)(C2)C3)nc2n1[C@H](c1cncc(F)c1)CC2` [Compound 1-57, (S)-2-(3-(difluoromethyl)bicyclo[1.1.1]pentan-1-yl)-5-(5-fluoropyridin-3-yl)-2,5,6,7-tetrahydro-3H-pyrrolo[2,1-c][1,2,4]triazol-3-one] was run?
Answer: 369 nM

Question: With `O=c1n(C23CC(F)(C2)C3)nc2n1[C@H](c1cc(F)cc(F)c1)CCC2` [Compound 1-58, (S)-5-(3,5-difluorophenyl)-2-(3-fluorobicyclo[1.1.1]pentan-1-yl)-5,6,7,8-tetrahydro-[1,2,4]triazolo[4,3-a]pyridin-3(2H)-one] as the compound, how does the EC50 read?
Answer: 45.9 nM

Question: For `O=c1n(C23CC(Cl)(C2)C3)nc2n1[C@H](c1cnccn1)CC2` [Compound 1-59, (S)-2-(3-chlorobicyclo[1.1.1]pentan-1-yl)-5-(pyrazin-2-yl)-2,5,6,7-tetrahydro-3H-pyrrolo[2,1-c][1,2,4]triazol-3-one], which EC50 is on record?
Answer: 53.9 nM

Question: How did the EC50 turn out when `N#CC12CCC(n3nc4n(c3=O)[C@H](c3cnccn3)CC4)(C1)C2` [Compound 1-60, (S)-4-(3-oxo-5-(pyrazin-2-yl)-6,7-dihydro-3H-pyrrolo[2,1-c][1,2,4]triazol-2(5H)-yl)bicyclo[2.1.1]hexane-1-carbonitrile] was run?
Answer: 512 nM

Question: `O=c1n(C23CCC(C2)C3)nc2n1[C@H](c1cnccn1)CC2` [Compound 1-61, (S)-2-(bicyclo[2.1.1]hexan-1-yl)-5-(pyrazin-2-yl)-2,5,6,7-tetrahydro-3H-pyrrolo[2,1-c][1,2,4]triazol-3-one] was tested. Which EC50 did it give?
Answer: 696 nM

Question: `N#CC12CC(n3nc4n(c3=O)[C@H](c3cccc(Cl)c3)CC4)(C1)C2` [Compound 1-62, (S)-3-(5-(3-chlorophenyl)-3-oxo-6,7-dihydro-3H-pyrrolo[2,1-c][1,2,4]triazol-2(5H)-yl)bicyclo[1.1.1]pentane-1-carbonitrile] was tested. Which EC50 did it give?
Answer: 98.6 nM

Question: Which EC50 does the source give for `O=c1n(C23CC(F)(C2)C3)nc2n1[C@H](c1cccc(Cl)c1)CC2` [Compound 1-63, (S)-5-(3-chlorophenyl)-2-(3-fluorobicyclo[1.1.1]pentan-1-yl)-2,5,6,7-tetrahydro-3H-pyrrolo[2,1-c][1,2,4]triazol-3-one] here?
Answer: 68.1 nM

Question: For `N#CC12CC(n3nc4n(c3=O)[C@@H](c3cc(F)cc(F)c3)CS4)(C1)C2` [Compound 1-64, (S)-3-(5-(3,5-difluorophenyl)-3-oxo-5,6-dihydrothiazolo[2,3-c][1,2,4]triazol-2(3H)-yl)bicyclo[1.1.1]pentane-1-carbonitrile], which EC50 is on record?
Answer: 395 nM

Question: With `N#CC12CC(n3nc4n(c3=O)[C@H](c3cc(F)cc(F)c3)CS4)(C1)C2` [Compound 1-65, (R)-3-(5-(3,5-difluorophenyl)-3-oxo-5,6-dihydrothiazolo[2,3-c][1,2,4]triazol-2(3H)-yl)bicyclo[1.1.1]pentane-1-carbonitrile] as the compound, how does the EC50 read?
Answer: 21.1 nM

Question: For `COc1ccc([C@@H]2CCc3nn(C45CC(F)(C4)C5)c(=O)n32)cc1` [Compound 1-66, (S)-2-(3-fluorobicyclo[1.1.1]pentan-1-yl)-5-(4-methoxyphenyl)-2,5,6,7-tetrahydro-3H-pyrrolo[2,1-c][1,2,4]triazol-3-one], which EC50 is on record?
Answer: 85.8 nM

Question: How did the EC50 turn out when `N#Cc1ccc([C@@H]2CCc3nn(C45CC(F)(C4)C5)c(=O)n32)cc1` [Compound 1-67, (S)-4-(2-(3-fluorobicyclo[1.1.1]pentan-1-yl)-3-oxo-2,5,6,7-tetrahydro-3H-pyrrolo[2,1-c][1,2,4]triazol-5-yl)benzonitrile] was run?
Answer: 279 nM

Question: `Cc1cncc([C@@H]2CCc3nn(C45CC(Cl)(C4)C5)c(=O)n32)n1` [Compound 1-68] was tested. Which EC50 did it give?
Answer: 59.5 nM

Question: How did the EC50 turn out when `C[C@@H]1C[C@@H](c2cc(F)cc(F)c2)n2c1nn(C13CC(C#N)(C1)C3)c2=O` [Compound 1-69, 3-((5S,7R)-5-(3,5-difluorophenyl)-7-methyl-3-oxo-6,7-dihydro-3H-pyrrolo[2,1-c][1,2,4]triazol-2(5H)-yl)bicyclo[1.1.1]pentane-1-carbonitrile] was run?
Answer: 263 nM

Question: `C[C@H]1C[C@@H](c2cc(F)cc(F)c2)n2c1nn(C13CC(C#N)(C1)C3)c2=O` [Compound 1-70, 3-((5S,7S)-5-(3,5-difluorophenyl)-7-methyl-3-oxo-6,7-dihydro-3H-pyrrolo[2,1-c][1,2,4]triazol-2(5H)-yl)bicyclo[1.1.1]pentane-1-carbonitrile] was tested. Which EC50 did it give?
Answer: 68.5 nM

Question: Which EC50 does the source give for `O=c1n(C23CC(Cl)(C2)C3)nc2n1[C@H](c1ccc(F)cn1)CC2` [Compound 1-71, (S)-2-(3-chlorobicyclo[1.1.1]pentan-1-yl)-5-(5-fluoropyridin-2-yl)-2,5,6,7-tetrahydro-3H-pyrrolo[2,1-c][1,2,4]triazol-3-one] here?
Answer: 162 nM

Question: With `Cc1c(F)cc([C@@H]2CCc3nn(C45CC(F)(C4)C5)c(=O)n32)cc1Cl` [Compound 1-72, (S)-5-(3-chloro-5-fluoro-4-methylphenyl)-2-(3-fluorobicyclo[1.1.1]pentan-1-yl)-2,5,6,7-tetrahydro-3H-pyrrolo[2,1-c][1,2,4]triazol-3-one] as the compound, how does the EC50 read?
Answer: 21.2 nM

Question: With `O=c1n(C23CC(F)(C2)C3)nc2n1[C@H](c1cc(F)c(O)c(F)c1)CC2` [Compound 1-73, (S)-5-(3,5-difluoro-4-hydroxyphenyl)-2-(3-fluorobicyclo[1.1.1]pentan-1-yl)-2,5,6,7-tetrahydro-3H-pyrrolo[2,1-c][1,2,4]triazol-3-one] as the compound, how does the EC50 read?
Answer: 28.2 nM

Question: Which EC50 does the source give for `Cc1cc(F)c([C@@H]2CCc3nn(C45CC(F)(C4)C5)c(=O)n32)c(F)c1` [Compound 1-74, (S)-5-(2,6-difluoro-4-methylphenyl)-2-(3-fluorobicyclo[1.1.1]pentan-1-yl)-2,5,6,7-tetrahydro-3H-pyrrolo[2,1-c][1,2,4]triazol-3-one] here?
Answer: 20.9 nM

Question: With `O=c1n(C23CC(F)(C2)C3)nc2n1[C@H](c1ccc(Cl)c(F)c1)CC2` [Compound 1-75, (S)-5-(4-chloro-3-fluorophenyl)-2-(3-fluorobicyclo[1.1.1]pentan-1-yl)-2,5,6,7-tetrahydro-3H-pyrrolo[2,1-c][1,2,4]triazol-3-one] as the compound, how does the EC50 read?
Answer: 17.1 nM

Question: For `O=c1n(C23CC(F)(C2)C3)nc2n1[C@H](c1cc(F)c(F)c(F)c1)CC2` [Compound 1-76, (S)-2-(3-fluorobicyclo[1.1.1]pentan-1-yl)-5-(3,4,5-trifluorophenyl)-2,5,6,7-tetrahydro-3H-pyrrolo[2,1-c][1,2,4]triazol-3-one], which EC50 is on record?
Answer: 27.5 nM

Question: With `O=c1n(C23CC(F)(C2)C3)nc2n1[C@H](c1cc(F)c(Cl)c(F)c1)CC2` [Compound 1-77, (S)-5-(4-chloro-3,5-difluorophenyl)-2-(3-fluorobicyclo[1.1.1]pentan-1-yl)-2,5,6,7-tetrahydro-3H-pyrrolo[2,1-c][1,2,4]triazol-3-one] as the compound, how does the EC50 read?
Answer: 16.7 nM

— US20240025912A1 (Merck Sharp & Dohme LLC, priority 2022, published 2024)
